Source: patent US7910612B2, “4-oxy-N-[1,3,4]-thiadiazol-2-yl-benzene sulfonamides, pharmaceutical compositions and methods for their therapeutic use” (Sanofi-Aventis, priority 2005, dated 2011)

Key:
[1] = biological target: T1, human PPARdelta (Homo sapiens, UniProt Q03181); experiment: cellular PPARdelta assay (stably transfected HEK luciferase reporter cell line); assay type: cell-based
T1 construct: amino acids S139-Y441; expressed in transfected cells; host or cells: HEK (human embryo kidney) cells, stably transfected, pcDNA3 vector
T1 sequence (Q03181 139-441): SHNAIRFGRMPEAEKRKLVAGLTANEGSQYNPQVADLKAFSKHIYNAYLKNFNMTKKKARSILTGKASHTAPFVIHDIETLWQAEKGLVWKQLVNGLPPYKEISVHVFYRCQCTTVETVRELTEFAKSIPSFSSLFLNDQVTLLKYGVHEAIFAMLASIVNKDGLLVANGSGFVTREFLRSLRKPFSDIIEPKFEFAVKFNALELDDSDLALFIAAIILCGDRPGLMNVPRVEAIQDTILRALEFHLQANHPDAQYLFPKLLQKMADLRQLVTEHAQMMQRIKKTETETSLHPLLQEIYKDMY
Method: The potency of substances which bind to human PPARdelta and activate it in an agonistic manner is analyzed using a stably transfected HEK cell line (HEK=human embryo kidney) which is referred to here as PPARdelta reporter cell line. In analogy to the assay described for PPARalpha, the PPARdelta reporter cell line also contains two genetic elements, a luciferase reporter element (pdeltaM-GAL4-Luc-Zeo) and a PPARdelta fusion protein (GR-GAL4-humanPPARdelta-LBD) which mediates expression of the luciferase reporter element depending on a PPARdelta ligand. The stably and constitutively expressed fusion protein GR-GAL4-humanPPARdelta-LBD binds in the cell nucleus of the PPARdelta reporter cell line via the GAL4 protein portion to the GAL4 DNA binding motifs 5′-upstream of the luciferase reporter element which is stably integrated in the genome of the cell line. There is only little expression of the luciferase reporter gene in the absence of a PPARdelta ligand if fatty acid-depleted fetal calf serum (cs-FCS) is used in the assay. PPARdelta ligands bind and activate the PPARdelta fusion protein and thereby stimulate expression of the luciferase reporter gene. The luciferase which is formed can be detected by means of chemiluminescence via an appropriate substrate.
The production of the stable PPARdelta reporter cell line is based on a stable HEK-cell clone which was stably transfected with a luciferase reporter element. This step was already described above in the section “construction of the PPARalpha reporter cell line”. In a second step, the PPARdelta fusion protein (GR-GAL4-humanPPARdelta-LBD was stably introduced into this cell clone. For this purpose, the cDNA coding for the N-terminal 76 amino acids of the glucocorticoid receptor (Accession #P04150) was linked to the cDNA section coding for amino acids 1-147 of the yeast transcription factor GAL4 (Accession #P04386). The cDNA of the ligand-binding domain of the human PPARdelta receptor (amino acids S139-Y441; Accession #L07592) was cloned in at the 3′-end of this GR-GAL4 construct. The fusion construct prepared in this way (GR-GAL4-humanPPARdelta-LBD) was recloned into the plasmid pcDNA3 (Invitrogen) in order to enable constitutive expression by the cytomegalovirus promoter. This plasmid was linearized with a restriction endonuclease and stably transfected into the previously described cell clone containing the luciferase reporter element. The resulting PPARdelta reporter cell line which contains a luciferase reporter element and constitutively expresses the PPARdelta fusion protein (GR-GAL4-human PPARdelta-LBD) was isolated by selection with zeocin (0.5 mg/ml) and G418 (0.5 mg/ml).
The activity of PPARdelta agonists is determined in a 3-day assay in exact analogy to the procedure already described for the PPARalpha reporter cell line except that the PPARdelta reporter cell line and a specific PPARdelta agonist was used as a standard to control test efficacy. […] Compounds of the invention of the formula I activate the PPARdelta receptor.

[2] = tested on: diabetic animal model; settings: cited from earlier work
[3] = tested on: obese, insulin resistant rhesus monkeys; settings: cited from earlier work
[4] = tested on: rhesus monkeys; settings: cited from earlier work
[5] = tested on: cynomolgus monkeys; settings: cited from earlier work
[6] = tested on: healthy volunteers; settings: two weeks clinical trials in healthy volunteers; cited from earlier work

COc1ccc2oc(COc3ccc(S(=O)(=O)Nc4nnc(C(C)C)s4)cc3)cc2c1 [Example 12, N-(5-Isopropyl-[1,3,4]thiadiazol-2-yl)-4-(5-methoxy-benzofuran-2-ylmethoxy)-benzenesulfonamide]
EC50 [1]: 480 nM

CCCc1c(OCCCOc2ccc(OCC(=O)O)cc2)ccc(C(C)=O)c1O [Example L-165041]
plasma cholesterol [2]: raises plasma cholesterol

Cc1cc(SCc2sc(-c3ccc(C(F)(F)F)cc3)nc2C)ccc1OCC(=O)O [GW501516]
HDL-cholesterol [3]: raises HDL-cholesterol
plasma LDL-cholesterol [3]: decreases plasma LDL-cholesterol
insulin levels ([3]; plasma): decreases
triglycerides ([3]; plasma): decreases

CCCc1c(OCCCSc2nnc(SCC(=O)O)s2)ccc(C(C)=O)c1O [YM-16638]
plasma lipids [4]: significantly lowers plasma lipids
plasma lipids [5]: significantly lowers plasma lipids
plasma lipids [6]: acts in a similar manner
